Values quoted from earlier work in PMC3222680 (PLoS ONE, 2011).

Tested on: α1 β GlyRs with cysteine mutations in the M2–M3 loop of the β subunit
Conditions: cysteine-substituted α1 β GlyRs (β subunit M2–M3 loop) ref 22; cited from earlier work

Compound: C[N+](C)(C)CCSS(C)(=O)=O [MTSET, 2-trimethylammoniumethylmethane thiosulfonate]
- channel function in response to MTSET treatment: did not change
